In article PMC10838953:

Key:
PIKFYVE = PIKFYVE (Homo sapiens, UniProt Q9Y2I7); assay: biochemical; conditions: read-out: %Ctrl @ 2000nM
IKK-beta = IKK-beta (Homo sapiens, UniProt O14920); assay: biochemical; conditions: read-out: %Ctrl @ 2000nM
IRAK3 = IRAK3 (Homo sapiens, UniProt Q9Y616); assay: biochemical; conditions: read-out: %Ctrl @ 2000nM
CAMK2A = CAMK2A (Homo sapiens, UniProt Q9UQM7); assay: biochemical; conditions: read-out: %Ctrl @ 2000nM
FLT3(D835Y) = FLT3(D835Y) (Homo sapiens, UniProt P36888, D835Y); assay: biochemical; conditions: read-out: %Ctrl @ 2000nM
FLT3(D835H) = FLT3(D835H) (Homo sapiens, UniProt P36888, D835H); assay: biochemical; conditions: read-out: %Ctrl @ 2000nM
ASK1 = ASK1 (Homo sapiens, UniProt Q99683); assay: biochemical; conditions: read-out: %Ctrl @ 2000nM
Sequence of ASK1 (Q99683 whole entry): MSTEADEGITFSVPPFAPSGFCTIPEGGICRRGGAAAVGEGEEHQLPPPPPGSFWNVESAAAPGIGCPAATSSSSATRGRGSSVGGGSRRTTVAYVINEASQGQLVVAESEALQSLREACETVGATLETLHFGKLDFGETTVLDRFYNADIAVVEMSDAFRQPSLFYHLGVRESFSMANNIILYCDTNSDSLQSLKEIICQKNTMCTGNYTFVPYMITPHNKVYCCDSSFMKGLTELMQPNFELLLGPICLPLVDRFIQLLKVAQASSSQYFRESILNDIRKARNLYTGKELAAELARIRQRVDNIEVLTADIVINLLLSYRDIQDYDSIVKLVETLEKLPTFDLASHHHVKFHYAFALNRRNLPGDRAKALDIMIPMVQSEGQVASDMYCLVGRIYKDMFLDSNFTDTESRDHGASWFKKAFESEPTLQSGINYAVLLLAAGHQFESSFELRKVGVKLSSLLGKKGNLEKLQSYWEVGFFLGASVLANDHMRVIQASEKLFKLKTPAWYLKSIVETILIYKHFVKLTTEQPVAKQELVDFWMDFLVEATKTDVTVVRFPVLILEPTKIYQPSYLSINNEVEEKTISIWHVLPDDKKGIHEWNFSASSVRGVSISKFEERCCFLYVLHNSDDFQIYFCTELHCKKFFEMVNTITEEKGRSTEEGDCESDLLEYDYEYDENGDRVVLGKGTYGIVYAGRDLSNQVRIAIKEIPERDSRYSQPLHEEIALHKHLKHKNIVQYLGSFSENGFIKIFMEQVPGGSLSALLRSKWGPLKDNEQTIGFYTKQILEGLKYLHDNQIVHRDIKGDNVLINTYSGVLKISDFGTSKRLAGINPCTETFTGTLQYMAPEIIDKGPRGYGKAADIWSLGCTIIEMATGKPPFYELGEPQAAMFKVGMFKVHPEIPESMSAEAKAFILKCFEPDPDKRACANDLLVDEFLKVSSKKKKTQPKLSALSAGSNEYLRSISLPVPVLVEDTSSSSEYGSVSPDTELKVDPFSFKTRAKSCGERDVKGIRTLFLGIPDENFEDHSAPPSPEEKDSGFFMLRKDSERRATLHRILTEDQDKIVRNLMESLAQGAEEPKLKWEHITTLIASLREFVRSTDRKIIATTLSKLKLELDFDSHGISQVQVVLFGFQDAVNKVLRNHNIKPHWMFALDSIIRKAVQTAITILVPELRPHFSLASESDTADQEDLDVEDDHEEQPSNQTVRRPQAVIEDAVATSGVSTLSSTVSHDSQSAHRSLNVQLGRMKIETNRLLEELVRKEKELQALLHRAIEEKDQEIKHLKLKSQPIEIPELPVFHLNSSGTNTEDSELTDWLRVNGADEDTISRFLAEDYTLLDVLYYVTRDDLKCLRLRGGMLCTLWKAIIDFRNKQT

MEK2 = MEK2 (Homo sapiens, UniProt P36507); assay: biochemical; conditions: read-out: %Ctrl @ 2000nM
YANK3 = YANK3 (Homo sapiens, UniProt Q86UX6); assay: biochemical; conditions: read-out: %Ctrl @ 2000nM
[1] = tested on: RPTEC (renal proximal tubule epithelial cells); conditions: high concentrations
BMPR1B = BMPR1B (Homo sapiens, UniProt O00238); assay: biochemical; conditions: read-out: %Ctrl @ 2000nM
CSNK1E = CSNK1E (Homo sapiens, UniProt P49674); assay: biochemical; conditions: read-out: %Ctrl @ 2000nM
TIE2 = TIE2 (Homo sapiens, UniProt Q02763); assay: biochemical; conditions: read-out: %Ctrl @ 2000nM
FLT3(R834Q) = FLT3(R834Q) (Homo sapiens, UniProt P36888, R834Q); assay: biochemical; conditions: read-out: %Ctrl @ 2000nM
ERK8 = ERK8 (Homo sapiens, UniProt Q8TD08); assay: biochemical; conditions: read-out: %Ctrl @ 2000nM
MST4 = MST4 (Homo sapiens, UniProt Q9P289); assay: biochemical; conditions: read-out: %Ctrl @ 2000nM
MINK = MINK (Homo sapiens, UniProt Q8N4C8); assay: biochemical; conditions: read-out: %Ctrl @ 2000nM
CDK9 = CDK9 (Homo sapiens, UniProt P50750); assay: biochemical; conditions: read-out: %Ctrl @ 2000nM
NEK3 = NEK3 (Homo sapiens, UniProt P51956); assay: biochemical; conditions: read-out: %Ctrl @ 2000nM
FLT3-autoinhibited = FLT3-autoinhibited (Homo sapiens, UniProt P36888); assay: biochemical; conditions: read-out: %Ctrl @ 2000nM
HASPIN = HASPIN (Homo sapiens, UniProt Q8TF76); assay: biochemical; conditions: read-out: %Ctrl @ 2000nM
SGK2 = SGK2 (Homo sapiens, UniProt Q9HBY8); assay: biochemical; conditions: read-out: %Ctrl @ 2000nM
LRRK2(G2019S) = LRRK2(G2019S) (Homo sapiens, UniProt Q5S007, G2019S); assay: biochemical; conditions: read-out: %Ctrl @ 2000nM
ZAP70 = ZAP70 (Homo sapiens, UniProt P43403); assay: biochemical; conditions: read-out: %Ctrl @ 2000nM
MEK1 = MEK1 (Homo sapiens, UniProt Q02750); assay: biochemical; conditions: read-out: %Ctrl @ 2000nM
HIPK1 = HIPK1 (Homo sapiens, UniProt Q86Z02); assay: biochemical; conditions: read-out: %Ctrl @ 2000nM
p38-beta = p38-beta (Homo sapiens, UniProt Q15759); assay: biochemical; conditions: read-out: %Ctrl @ 2000nM
MEK5 = MEK5 (Homo sapiens, UniProt Q13163); assay: biochemical; conditions: read-out: %Ctrl @ 2000nM
Sequence of MEK5 (Q13163 whole entry): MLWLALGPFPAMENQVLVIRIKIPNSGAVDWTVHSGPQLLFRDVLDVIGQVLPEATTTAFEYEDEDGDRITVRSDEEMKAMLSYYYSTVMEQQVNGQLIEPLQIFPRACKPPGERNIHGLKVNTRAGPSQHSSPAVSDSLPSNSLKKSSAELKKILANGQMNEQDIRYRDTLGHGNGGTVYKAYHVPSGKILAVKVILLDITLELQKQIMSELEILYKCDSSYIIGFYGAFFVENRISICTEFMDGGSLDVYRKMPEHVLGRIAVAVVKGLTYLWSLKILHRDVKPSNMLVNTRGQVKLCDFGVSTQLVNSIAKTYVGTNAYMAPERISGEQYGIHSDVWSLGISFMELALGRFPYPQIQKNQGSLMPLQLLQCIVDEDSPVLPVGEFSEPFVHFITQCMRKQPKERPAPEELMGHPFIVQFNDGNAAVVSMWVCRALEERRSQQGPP

NEK4 = NEK4 (Homo sapiens, UniProt P51957); assay: biochemical; conditions: read-out: %Ctrl @ 2000nM
ASK2 = ASK2 (Homo sapiens, UniProt O95382); assay: biochemical; conditions: read-out: %Ctrl @ 2000nM
ERK3 = ERK3 (Homo sapiens, UniProt Q16659); assay: biochemical; conditions: read-out: %Ctrl @ 2000nM
PRKG1 = PRKG1 (Homo sapiens, UniProt Q13976); assay: biochemical; conditions: read-out: %Ctrl @ 2000nM
ERK4 = ERK4 (Homo sapiens, UniProt P31152); assay: biochemical; conditions: read-out: %Ctrl @ 2000nM
MLK3 = MLK3 (Homo sapiens, UniProt Q16584); assay: biochemical; conditions: read-out: %Ctrl @ 2000nM
[2] = target: ABL1(F317I)-nonphosphorylated (Homo sapiens, UniProt P00519, F317I); assay: biochemical; conditions: read-out: %Ctrl @ 2000nM
Sequence of ABL1(F317I)-nonphosphorylated (P00519 whole entry F317I): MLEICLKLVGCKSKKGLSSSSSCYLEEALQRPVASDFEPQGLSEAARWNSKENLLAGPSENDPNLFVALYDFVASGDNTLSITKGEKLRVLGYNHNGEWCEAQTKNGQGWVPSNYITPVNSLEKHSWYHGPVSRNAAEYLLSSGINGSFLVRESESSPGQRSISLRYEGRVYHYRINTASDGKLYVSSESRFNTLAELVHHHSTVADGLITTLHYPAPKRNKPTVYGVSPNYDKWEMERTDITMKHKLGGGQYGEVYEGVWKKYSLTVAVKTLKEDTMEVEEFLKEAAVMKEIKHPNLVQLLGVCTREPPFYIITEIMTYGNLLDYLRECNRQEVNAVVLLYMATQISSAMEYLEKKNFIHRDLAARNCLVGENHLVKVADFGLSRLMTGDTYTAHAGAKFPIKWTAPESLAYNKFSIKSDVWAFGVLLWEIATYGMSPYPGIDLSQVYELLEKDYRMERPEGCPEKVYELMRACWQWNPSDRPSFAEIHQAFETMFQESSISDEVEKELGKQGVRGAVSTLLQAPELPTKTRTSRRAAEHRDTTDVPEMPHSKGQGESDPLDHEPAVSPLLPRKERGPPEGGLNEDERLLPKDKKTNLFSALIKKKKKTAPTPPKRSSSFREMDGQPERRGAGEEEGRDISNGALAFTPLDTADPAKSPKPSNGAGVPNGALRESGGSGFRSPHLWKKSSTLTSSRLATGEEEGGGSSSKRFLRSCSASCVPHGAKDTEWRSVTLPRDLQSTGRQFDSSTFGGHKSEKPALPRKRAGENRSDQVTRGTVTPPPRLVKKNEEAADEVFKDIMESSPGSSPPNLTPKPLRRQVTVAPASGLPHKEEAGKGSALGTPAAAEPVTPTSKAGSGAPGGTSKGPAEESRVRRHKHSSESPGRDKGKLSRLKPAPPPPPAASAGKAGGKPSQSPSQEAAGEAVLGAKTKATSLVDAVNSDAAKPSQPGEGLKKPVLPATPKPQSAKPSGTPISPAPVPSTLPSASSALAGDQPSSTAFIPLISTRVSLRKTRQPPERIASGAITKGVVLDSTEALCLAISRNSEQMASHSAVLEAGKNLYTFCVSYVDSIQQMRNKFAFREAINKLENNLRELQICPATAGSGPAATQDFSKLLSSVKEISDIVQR

GSK3A = GSK3A (Homo sapiens, UniProt P49840); assay: biochemical; conditions: read-out: %Ctrl @ 2000nM
GRK1 = GRK1 (Homo sapiens, UniProt Q15835); assay: biochemical; conditions: read-out: %Ctrl @ 2000nM
EPHA4 = EPHA4 (Homo sapiens, UniProt P54764); assay: biochemical; conditions: read-out: %Ctrl @ 2000nM
[3] = target: RSK2(Kin.Dom.1-N-terminal) (Homo sapiens, UniProt P51812); assay: biochemical; conditions: read-out: %Ctrl @ 2000nM
HIPK4 = HIPK4 (Homo sapiens, UniProt Q8NE63); assay: biochemical; conditions: read-out: %Ctrl @ 2000nM
TYRO3 = TYRO3 (Homo sapiens, UniProt Q06418); assay: biochemical; conditions: read-out: %Ctrl @ 2000nM
Sequence of TYRO3 (Q06418 41-890): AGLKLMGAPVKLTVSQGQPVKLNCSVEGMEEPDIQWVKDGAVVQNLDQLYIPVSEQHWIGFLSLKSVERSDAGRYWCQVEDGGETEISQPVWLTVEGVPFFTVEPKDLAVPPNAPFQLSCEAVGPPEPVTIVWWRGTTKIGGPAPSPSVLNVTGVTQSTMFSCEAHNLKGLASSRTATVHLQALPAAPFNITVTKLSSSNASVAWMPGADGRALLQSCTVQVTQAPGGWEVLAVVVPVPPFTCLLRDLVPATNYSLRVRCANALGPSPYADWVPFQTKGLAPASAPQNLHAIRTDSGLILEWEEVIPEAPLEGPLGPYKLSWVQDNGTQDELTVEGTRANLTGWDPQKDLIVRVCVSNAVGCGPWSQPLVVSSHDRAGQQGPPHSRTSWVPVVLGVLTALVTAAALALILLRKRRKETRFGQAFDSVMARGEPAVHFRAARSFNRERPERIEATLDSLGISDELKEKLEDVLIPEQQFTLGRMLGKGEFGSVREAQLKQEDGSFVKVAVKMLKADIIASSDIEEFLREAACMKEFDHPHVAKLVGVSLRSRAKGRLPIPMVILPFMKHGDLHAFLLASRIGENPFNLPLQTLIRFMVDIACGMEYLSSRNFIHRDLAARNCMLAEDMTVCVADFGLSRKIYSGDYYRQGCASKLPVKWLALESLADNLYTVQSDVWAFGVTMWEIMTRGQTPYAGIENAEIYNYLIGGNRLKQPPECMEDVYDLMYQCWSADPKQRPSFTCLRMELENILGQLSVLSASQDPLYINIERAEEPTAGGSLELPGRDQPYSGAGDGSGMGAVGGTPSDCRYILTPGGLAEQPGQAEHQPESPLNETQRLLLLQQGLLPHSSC

ABL2 = ABL2 (Homo sapiens, UniProt P42684); assay: biochemical; conditions: read-out: %Ctrl @ 2000nM
EPHA8 = EPHA8 (Homo sapiens, UniProt P29322); assay: biochemical; conditions: read-out: %Ctrl @ 2000nM
Sequence of EPHA8 (P29322 28-1005): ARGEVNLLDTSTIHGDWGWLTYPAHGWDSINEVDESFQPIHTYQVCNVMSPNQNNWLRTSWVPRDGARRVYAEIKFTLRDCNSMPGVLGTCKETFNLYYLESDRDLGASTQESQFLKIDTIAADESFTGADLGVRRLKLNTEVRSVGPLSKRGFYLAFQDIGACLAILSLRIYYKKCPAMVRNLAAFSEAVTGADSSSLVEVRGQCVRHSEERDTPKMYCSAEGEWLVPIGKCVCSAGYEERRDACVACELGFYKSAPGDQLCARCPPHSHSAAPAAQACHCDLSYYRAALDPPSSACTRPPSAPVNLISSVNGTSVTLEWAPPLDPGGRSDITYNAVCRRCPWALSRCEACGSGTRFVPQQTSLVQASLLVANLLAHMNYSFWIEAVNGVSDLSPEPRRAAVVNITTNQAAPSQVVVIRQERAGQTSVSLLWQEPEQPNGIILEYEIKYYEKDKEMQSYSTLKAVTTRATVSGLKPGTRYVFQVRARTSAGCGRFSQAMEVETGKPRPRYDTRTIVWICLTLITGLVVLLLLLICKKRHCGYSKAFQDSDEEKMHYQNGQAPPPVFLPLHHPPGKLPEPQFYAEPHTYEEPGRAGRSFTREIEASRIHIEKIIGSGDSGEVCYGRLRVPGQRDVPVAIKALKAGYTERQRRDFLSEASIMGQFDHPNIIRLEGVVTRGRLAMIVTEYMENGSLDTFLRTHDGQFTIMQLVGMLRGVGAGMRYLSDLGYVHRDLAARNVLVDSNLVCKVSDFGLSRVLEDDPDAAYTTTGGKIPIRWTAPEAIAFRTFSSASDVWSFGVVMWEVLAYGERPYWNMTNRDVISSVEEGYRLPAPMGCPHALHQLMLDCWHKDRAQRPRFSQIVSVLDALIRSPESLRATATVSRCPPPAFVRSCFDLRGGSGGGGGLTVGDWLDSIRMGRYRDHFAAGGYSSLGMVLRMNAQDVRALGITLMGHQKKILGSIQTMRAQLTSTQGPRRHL

CC(C)COC(=O)c1[nH]c2ccc(F)cc2c1-c1cn(CC2CCN(CCNS(=O)(=O)c3ccc(CC(C)C)cc3)CC2)nn1 [AB668, isobutyl 5-fluoro-3-(1-((1-(2-((4-isobutylphenyl)sulfonamido)ethyl)piperidin-4-yl)methyl)-1H-1,2,3-triazol-4-yl)-1H-indole-2-carboxylate]
remaining activity at 2 µM (PIKFYVE): 1.7%
remaining activity at 2 µM (IKK-beta): 91%
remaining activity at 2 µM (IRAK3): 86%
remaining activity at 2 µM (CAMK2A): 96%
remaining activity at 2 µM (FLT3(D835Y)): 79%
remaining activity at 2 µM (FLT3(D835H)): 89%
remaining activity at 2 µM (ASK1): 100%
remaining activity at 2 µM (MEK2): 96%
remaining activity at 2 µM (YANK3): 92%
cytotoxicity [1]: no cytotoxicity
remaining activity at 2 µM (BMPR1B): 100%
remaining activity at 2 µM (CSNK1E): 66%
remaining activity at 2 µM (TIE2): 83%
remaining activity at 2 µM (FLT3(R834Q)): 77%
remaining activity at 2 µM (ERK8): 53%
remaining activity at 2 µM (MST4): 92%
remaining activity at 2 µM (MINK): 100%
remaining activity at 2 µM (CDK9): 93%
remaining activity at 2 µM (NEK3): 71%
remaining activity at 2 µM (FLT3-autoinhibited): 100%
remaining activity at 2 µM (HASPIN): 100%
remaining activity at 2 µM (SGK2): 98%
remaining activity at 2 µM (LRRK2(G2019S)): 86%
remaining activity at 2 µM (ZAP70): 76%
remaining activity at 2 µM (MEK1): 97%
remaining activity at 2 µM (HIPK1): 100%
remaining activity at 2 µM (p38-beta): 74%
remaining activity at 2 µM (MEK5): 100%
remaining activity at 2 µM (NEK4): 86%
remaining activity at 2 µM (ASK2): 75%
remaining activity at 2 µM (ERK3): 91%
remaining activity at 2 µM (PRKG1): 85%
remaining activity at 2 µM (ERK4): 84%
remaining activity at 2 µM (MLK3): 99%
remaining activity at 2 µM [2]: 79%
remaining activity at 2 µM (GSK3A): 84%
remaining activity at 2 µM (GRK1): 80%
remaining activity at 2 µM (EPHA4): 78%
remaining activity at 2 µM [3]: 61%
remaining activity at 2 µM (HIPK4): 87%
remaining activity at 2 µM (TYRO3): 100%
remaining activity at 2 µM (ABL2): 94%
remaining activity at 2 µM (EPHA8): 92%
